Assay results taken from PubChem BioAssay (NCI).
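96-well plates; 48 h exposure; 5 concentrations. Endpoints by linear interpolation between flanking doses. Not reached: highest tested concentration assigned. GI50 is the concentration that inhibits growth by half. TGI denotes the concentration required for complete inhibition of growth.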

How the values were obtained:
Experiment in all cases: DTP human tumour cell line panel, 48 h
HL-60(TB) leukemia = test system: HL-60(TB) leukemia
A549 NSCLC = test system: A549 NSCLC
NCI-H226 lung = test system: NCI-H226 lung
SW-620 colon = test system: SW-620 colon
SK-MEL-2 melanoma = test system: SK-MEL-2 melanoma
BT-549 breast = test system: BT-549 breast
MDA-MB-435 = test system: MDA-MB-435
MCF7 breast = test system: MCF7 breast
NCI-H23 lung = test system: NCI-H23 lung
KM12 colon = test system: KM12 colon
SK-MEL-5 melanoma = test system: SK-MEL-5 melanoma
U251 CNS = test system: U251 CNS
HS 578T breast = test system: HS 578T breast
MALME-3M melanoma = test system: MALME-3M melanoma
LOX IMVI melanoma = test system: LOX IMVI melanoma
MOLT-4 leukemia = test system: MOLT-4 leukemia
HCT-15 colon = test system: HCT-15 colon
786-0 renal = test system: 786-0 renal
TK-10 renal = test system: TK-10 renal
HCC-2998 colon = test system: HCC-2998 colon
SR leukemia = test system: SR leukemia
T-47D breast = test system: T-47D breast
HCT-116 colon = test system: HCT-116 colon
IGROV1 ovarian = test system: IGROV1 ovarian
CCRF-CEM leukemia = test system: CCRF-CEM leukemia
HT29 colon = test system: HT29 colon
HOP-62 NSCLC = test system: HOP-62 NSCLC
SK-MEL-28 melanoma = test system: SK-MEL-28 melanoma
OVCAR-4 ovarian = test system: OVCAR-4 ovarian
SK-OV-3 ovarian = test system: SK-OV-3 ovarian

COc1cc(OC)c2c3nc4cc(C)c(C)cc4nc3n(CCN(C)C)c2c1 gave a GI50 (HL-60(TB) leukemia) of 16.3 µM, a TGI (HL-60(TB) leukemia) of 36.4 µM and a GI50 (A549 NSCLC) of 4.98 µM. It also gave a TGI (A549 NSCLC) of 22.9 µM, a GI50 (NCI-H226 lung) of 14.4 µM and a TGI (NCI-H226 lung) of 32.3 µM. For the same molecule, the GI50 (SW-620 colon) was 4.65 µM, the TGI (SW-620 colon) was 18.7 µM and the GI50 (SK-MEL-2 melanoma) was 16.7 µM. It also gave a TGI (SK-MEL-2 melanoma) of 35.4 µM, a GI50 (BT-549 breast) of 14.2 µM and a TGI (BT-549 breast) of 28.5 µM. The GI50 (MDA-MB-435) was 14.5 µM, the TGI (MDA-MB-435) was 28.2 µM and the GI50 (MCF7 breast) was 4.75 µM. The TGI (MCF7 breast) was 19.2 µM, the GI50 (NCI-H23 lung) was 13.1 µM and the TGI (NCI-H23 lung) was 27.8 µM. For the same molecule, the GI50 (KM12 colon) was 17.5 µM, the TGI (KM12 colon) was 34.2 µM and the GI50 (SK-MEL-5 melanoma) was 16.1 µM. The TGI (SK-MEL-5 melanoma) was 29.8 µM, the GI50 (U251 CNS) was 12.8 µM and the TGI (U251 CNS) was 28 µM. It also gave a GI50 (HS 578T breast) of 15.7 µM, a TGI (HS 578T breast) of 39.5 µM and a GI50 (MALME-3M melanoma) of 14.1 µM. For the same molecule, the TGI (MALME-3M melanoma) was 28.1 µM, the GI50 (LOX IMVI melanoma) was 8.99 µM and the TGI (LOX IMVI melanoma) was 22.7 µM. The GI50 (MOLT-4 leukemia) was 10.6 µM, the TGI (MOLT-4 leukemia) was 41.7 µM and the GI50 (HCT-15 colon) was 11.4 µM. For the same molecule, the TGI (HCT-15 colon) was 24.7 µM, the GI50 (786-0 renal) was 14.2 µM and the TGI (786-0 renal) was 29.2 µM. For the same molecule, the GI50 (TK-10 renal) was 16.5 µM, the TGI (TK-10 renal) was 31.9 µM and the GI50 (HCC-2998 colon) was 12.7 µM. For the same molecule, the TGI (HCC-2998 colon) was 26.1 µM, the GI50 (SR leukemia) was 4.29 µM and the TGI (SR leukemia) was 50.7 µM. The GI50 (T-47D breast) was 12.9 µM, the TGI (T-47D breast) was 32.1 µM and the GI50 (HCT-116 colon) was 13.9 µM. The TGI (HCT-116 colon) was 30.3 µM, the GI50 (IGROV1 ovarian) was 12 µM and the TGI (IGROV1 ovarian) was 26.1 µM. The GI50 (CCRF-CEM leukemia) was 22.4 µM, the TGI (CCRF-CEM leukemia) was > 100 µM and the GI50 (HT29 colon) was 4.88 µM. The TGI (HT29 colon) was 31.4 µM, the GI50 (HOP-62 NSCLC) was 5.75 µM and the TGI (HOP-62 NSCLC) was 22.2 µM. For the same molecule, the GI50 (SK-MEL-28 melanoma) was 15.6 µM, the TGI (SK-MEL-28 melanoma) was 29.3 µM and the GI50 (OVCAR-4 ovarian) was 14.9 µM. The TGI (OVCAR-4 ovarian) was 33.6 µM and the GI50 (SK-OV-3 ovarian) was 16.7 µM.
